Results as given in patent US7381688B2, “Methylthiophene carboxanilides” (Bayer CropScience AG, priority 2002, dated 2008).
Where two headings read alike, the source gives them in different places.

How the values were obtained:
[1] = logP determination by HPLC (reverse-phase C 18), EEC Directive 79/831 Annex V.A8; format: physicochemical; conditions: reverse-phase C18 HPLC column, 43° C.
Method: The logP value given in the Preparation Examples and tables above are determined in accordance with EEC Directives 79/831 Annex V.A8 by HPLC (High Performance Liquid Chromatography) using a reverse-phase column (C 18). Temperature: 43° C.
The determination is carried out in the acidic range at pH 2.3 using the mobile phases 0.1% aqueous phosphoric acid and acetonitrile; linear gradient from 10% acetonitrile to 90% acetonitrile.
Calibration is carried out using unbranched alkan-2-ones (having 3 to 16 carbon atoms) with known logP values (determination of the logP values by the retention times using linear interpolation between two successive alkanones).

Podosphaera leucotricha = assay: Podosphaera test (apple)/protective; format: in vivo; conditions: 240 h, protective, evaluation 10 days after inoculation, read-out: Efficacy in %
Method: Podosphaera Test (Apple)/Protective
(§1) • Solvents: 24.5 parts by weight of acetone • 24.5 parts by weight dimethylacetamide • Emulsifier: 1.0 part by weight alkylaryl polyglycol ether
(§2) To produce a suitable preparation of active compound, 1 part by weight of active compound is mixed with the stated amounts of solvents and emulsifier, and the concentrate is diluted with water to the desired concentration.
(§3) To test for protective activity, young plants are sprayed with the preparation of active compound at the stated application rate. After the spray coating has dried on, the plants are inoculated with an aqueous spore suspension of the apple mildew pathogen Podosphaera leucotricha. The plants are then placed in a greenhouse at about 23° C. and a relative atmospheric humidity of about 70%.
(§4) Evaluation is carried out 10 days after the inoculation. 0% means an efficacy which corresponds to that of the control, whereas an efficacy of 100% means that no infection is observed.

Venturia inaequalis = assay: Venturia test (apple)/protective; format: in vivo; conditions: 240 h, protective, evaluation 10 days after inoculation, read-out: Efficacy in %
Method: Venturia Test (Apple)/Protective
• Solvents: 24.5 parts by weight acetone • 24.5 parts by weight dimethylacetamide • Emulsifier: 1.0 part by weight alkylaryl polyglycol ether
To produce a suitable preparation of the active compound, 1 part by weight of active compound is mixed with the stated amounts of solvents and emulsifier, and the concentrate is diluted with water to the desired concentration.
To test for protective activity, young plants are sprayed with the preparation of active compound at the stated application rate. After the spray coating has dried on, the plants are inoculated with an aqueous Conidia suspension of the apple scab pathogen Venturia inaequalis and then remain in an incubation cabin at about 20° C. and 100% relative atmospheric humidity for 1 day.
The plants are then placed in a greenhouse at about 21° C. and a relative atmospheric humidity of about 90%.
as §4

Sphaerotheca fuliginea = assay: Sphaerotheca test (cucumber)/protective; format: in vivo; conditions: Podosphaera fuliginea, 168 h, protective, evaluation 7 days after inoculation, read-out: Efficacy in %
Method: Sphaerotheca Test (Cucumber)/Protective
as §1, §2
as §3, with “Sphaerotheca fuliginea.” for “the apple mildew pathogen Podosphaera leucotricha.”
(§5) Evaluation is carried out 7 days after the inoculation. 0% means an efficacy which corresponds to that of the control, whereas an efficacy of 100% means that no infection is observed.

Alternaria solani = assay: Alternaria test (tomato)/protective; format: in vivo; conditions: protective, 750 g/ha, evaluation 7 days after inoculation
Method: Alternaria Test (Tomato)/Protective
• Solvent: 49 parts by weight N,N-dimethylformamide • Emulsifier: 1 part by weight of alkylaryl polyglycol ether
(§6) To produce a suitable preparation of active compound, 1 part by weight of active compound is mixed with the stated amounts of solvent and emulsifier, and the concentrate is diluted with water to the desired concentration.
To test for protective activity, young tomato plants are sprayed with the preparation of active compound at the stated application rate. 1 day after the treatment, the plants are inoculated with a spore suspension of Alternaria solani and then remain at 100% relative humidity and 20° C. for 24 h. The plants then remain at 96% relative atmospheric humidity and a temperature of 20° C.
as §5

Pyrenophora teres = Pyrenophora teres test (barley)/protective; format: in vivo; conditions: protective, 500 g/ha, evaluation 7 days after inoculation
Method: Pyrenophora teres Test (Barley)/Protective
• Solvent: 25 parts by weight N,N-dimethylacetamide • Emulsifier: 0.6 part by weight alkylaryl polyglycol ether
as §6
To test for protective activity, young plants are sprayed with the preparation of active compound at the stated application rate. After the spray coating has dried on, the plants are sprayed with a conidia suspension of Pyrenophora teres. The plants remain in an incubation cabin at 20° C. and 100% relative atmospheric humidity for 48 hours.
The plants are then placed in a greenhouse at a temperature of about 20° C. and relative atmospheric humidity of about 80%.
as §5

[2] = pH 2.3, HPLC, read-out: logP (pH 2.3)
[3] = Table 1, acidic range at pH 2.3, HPLC, read-out: logP

`Cc1ccsc1C(=O)Nc1ccccc1-c1ccc(F)c(Cl)c1` [Example 1, N-(3′-chloro-4′-fluoro-1,1′-biphenyl-2-yl)-3-methyl-2-thiophenecarboxamide] gave a chromatographic logP [1, 2] of 3.85, a pest or weed control at 100 g/ha (Podosphaera leucotricha) of 100% and a pest or weed control at 100 g/ha (Venturia inaequalis) of 100%. For the same compound, the pest or weed control at 100 g/ha (Sphaerotheca fuliginea) was 100%.

`Cc1ccsc1C(=O)Nc1ccccc1-c1ccc(Br)cc1` [Example 3] gave a chromatographic logP [1, 3] of 4.12 and an Efficacy in % (Alternaria solani) of 100%.

Work on `Cc1ccsc1C(=O)Nc1ccccc1-c1cccc(Cl)c1` [Example 5] yielded a chromatographic logP [1, 3] of 3.97, a pest or weed control at 100 g/ha (Podosphaera leucotricha) of 100% and a pest or weed control at 100 g/ha (Venturia inaequalis) of 100%. The Efficacy in % (Alternaria solani) was 100% and the pest or weed control at 100 g/ha (Sphaerotheca fuliginea) was 93%.

For `Cc1ccsc1C(=O)Nc1ccccc1-c1ccc(OC(F)(F)F)cc1` [Example 6], the chromatographic logP [1, 3] was 4.33, the pest or weed control at 100 g/ha (Podosphaera leucotricha) was 100% and the Efficacy in % (Alternaria solani) was 100%. The pest or weed control at 100 g/ha (Sphaerotheca fuliginea) was 100%.

For `Cc1ccsc1C(=O)Nc1ccccc1-c1ccc(F)cc1` [Example 8], the chromatographic logP [1, 3] was 3.65, the Efficacy in % (Pyrenophora teres) was 80% and the Efficacy in % (Alternaria solani) was 100%.

In the case of `Cc1ccsc1C(=O)Nc1ccccc1-c1ccc(F)c(F)c1` [Example 9], the chromatographic logP [1, 3] is reported as 3.55, the pest or weed control at 100 g/ha (Podosphaera leucotricha) is reported as 100% and the pest or weed control at 100 g/ha (Venturia inaequalis) is reported as 100%. It also gave an Efficacy in % (Pyrenophora teres) of 100%, an Efficacy in % (Alternaria solani) of 100% and a pest or weed control at 100 g/ha (Sphaerotheca fuliginea) of 100%.

Work on `Cc1ccsc1C(=O)Nc1ccccc1-c1ccc(Cl)c(F)c1` [Example 10] yielded a chromatographic logP [1, 3] of 3.85, a pest or weed control at 100 g/ha (Podosphaera leucotricha) of 100% and a pest or weed control at 100 g/ha (Venturia inaequalis) of 100%. The Efficacy in % (Alternaria solani) was 100% and the pest or weed control at 100 g/ha (Sphaerotheca fuliginea) was 100%.

In the case of `Cc1ccsc1C(=O)Nc1ccccc1-c1ccc(OC(F)(F)F)c(F)c1` [Example 11], the chromatographic logP [1, 3] is reported as 4.13, the pest or weed control at 100 g/ha (Podosphaera leucotricha) is reported as 100% and the pest or weed control at 100 g/ha (Venturia inaequalis) is reported as 100%. For the same compound, the pest or weed control at 100 g/ha (Sphaerotheca fuliginea) was 100%.

For `Cc1ccsc1C(=O)Nc1ccccc1-c1ccc(OC(F)(F)F)c(C(F)(F)F)c1` [Example 12], the chromatographic logP [1, 3] was 4.37, the pest or weed control at 100 g/ha (Podosphaera leucotricha) was 100% and the pest or weed control at 100 g/ha (Sphaerotheca fuliginea) was 100%.

Compound `Cc1ccsc1C(=O)Nc1ccccc1-c1ccc(Cl)cc1F` [Example 13] has a pest or weed control at 100 g/ha (Podosphaera leucotricha) of 100%, a pest or weed control at 100 g/ha (Venturia inaequalis) of 100% and an Efficacy in % (Pyrenophora teres) of 94%. It also gave a pest or weed control at 100 g/ha (Sphaerotheca fuliginea) of 100%.

For `Cc1ccsc1C(=O)Nc1ccccc1-c1cc(Cl)cc(Cl)c1` [Example 15], the chromatographic logP [1, 3] was 4.32, the pest or weed control at 100 g/ha (Podosphaera leucotricha) was 100% and the pest or weed control at 100 g/ha (Venturia inaequalis) was 97%. It also gave a pest or weed control at 100 g/ha (Sphaerotheca fuliginea) of 100%.

`Cc1ccsc1C(=O)Nc1ccccc1-c1ccc(Cl)cc1Cl` [Example 19] showed a chromatographic logP [1, 3] of 5.76, a pest or weed control at 100 g/ha (Podosphaera leucotricha) of 100% and a pest or weed control at 100 g/ha (Venturia inaequalis) of 99%. For the same compound, the pest or weed control at 100 g/ha (Sphaerotheca fuliginea) was 96%.

For `Cc1ccsc1C(=O)Nc1ccccc1Br` [III-1, N-(2-bromophenyl)-3-methyl-2-thiophenecarboxamide], the chromatographic logP [1, 2] was 3.3.
